Ends that are not written are not given here.
Tests used:
[1] = target: T1, USP20 DUSP2 domain (Homo sapiens, UniProt Q9Y2K6); experiment: Peptide SPOT array, USP20 DUSP2; format: binding; details: for Average: peptide SPOT array intensity minus background, mean of 2 replicas; for Average / Normalize to peptide with higher intensity %: sheet S5A; for Normalize to higher intensity (%) / Normalize to peptide with higher intensity %: peptide SPOT array; for Normalize to higher intensity (%): USP20 DUSP2, average normalised to the highest intensity (ARNTL2 = 100); for Normalize to peptide with higher intensity %: average normalized to the peptide with highest intensity (ARNTL2 = 100);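 for all read-outs here: GST-tagged domain probed overnight at 4 °C on peptides made on cellulose membranes, bound protein detected via HRP-coupled anti-GST antibody, spot intensity from image analysis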
T1 construct: USP20_DUSP2; Q9Y2K6; DUSP2; 776; 894; 6xHis-GST (N, cleaved yes); made in house; host or cells: Escherichia coli BL21-Gold (DE3)

[2] = target: T2, USP33 DUSP2 domain (Homo sapiens, UniProt Q8TEY7); experiment: Peptide SPOT array, USP33 DUSP2; format: binding; details: average normalised to the highest intensity (CCDC88B = 100)
T2 construct: USP33_DUSP2; Q8TEY7; DUSP2; 806; 921; 6xHis-GST (N, cleaved yes); made in house; host or cells: Escherichia coli BL21-Gold (DE3)
T2 sequence (Q8TEY7 with tags, fused parts or gaps): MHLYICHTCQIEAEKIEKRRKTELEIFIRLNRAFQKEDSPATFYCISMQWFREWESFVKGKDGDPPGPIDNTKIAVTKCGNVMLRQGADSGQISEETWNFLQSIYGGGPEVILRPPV
Protocol: Peptides were synthesized on cellulose membranes with standard Fluoroenylmethylox-ycarbonyl (Fmoc) chemistry using a Multipep automated synthesizer at INTAVIS (Tübingen, Germany) or ordered from JPT (PepSpots). The membranes were activated with methanol for 5 min and washed three times for 5 min with TBST (50 mM Tris, 137 mM NaCl, 2.7 mM KCl, pH 8.0, 0.05% Tween-20). The membranes were incubated with blocking buffer (5% skim milk powder in TBST) for 2 h at room temperature while shaking. The membranes were incubated with the GST-tagged protein diluted at the desired concentration in blocking buffer and incubated overnight at 4 °C while shaking. The membrane was rinsed 3 times with TBST and incubated with HRP-conjugated anti-GST antibody (Cytiva, RPN1236; 1:3000 dilution) in blocking buffer for 1 h at 4 °C while shaking. […] The images were analyzed in Fiji (ImageJ2 version 2.9.0).

[3] = tested on: USP auxiliary domains and full-length CYLD and USP7 (baits); experiment: ProP-PD selections against the HD2 library; format: binding, human; details: for specificity / mean_counts_%: ProP-PD peptide level
Protocol: We generated a collection of 29 USP ADs and two full-length USPs (CYLD and USP7). The collection was biased towards domains that are present in several USPs, such as zf-UBP domains, UBL domains and DUSP domains (Suppl. Data 1). We also included ADs only found in specific USPs, such as the three CAP-Gly domains of CYLD and the C-terminal domain of USP25. […] The peptide-coding regions of the phage pools were analyzed by next-generation sequencing (NGS), mapped to the corresponding proteins, and filtered for high/medium confidence ligands based on established criteria (with confidence level 4 being the highest).
(§1) Proteins were expressed in Escherichia coli (E.coli) BL21-Gold (DE3) bacteria. The cDNAs encoding N-terminal 6-histidine-glutathione S-transferase tagged (6xHis-GST), 6xHis-tagged or GST-tagged protein domains in pETM33, pETM11, pGEX6P1 expression vectors respectively, were obtained from Genescript or kindly provided by MRC-PPU (Suppl. Data 1) The bacteria were transformed with the plasmid and grew at 37 °C in 2YT (5 g/L NaCl, 16 g/L tryptone and 10 g/L yeast extract) supplemented with Kanamycin (30 μg/mL) until reaching an OD600 of 0.7. Protein expression was induced with 0.3 mM isopropyl β-D-1 thiogalactopyranoside (IPTG) for 18 h at 18 °C while shaking. For zinc-finger domains, 50 μM of ZnSO4 was added during expression. The bacterial cultures were pelleted for 15 minutes at 4000 x g at 4 °C and stored at −20 °C until purification. The pellets were resuspended in lysis buffer (1× phosphate-buffered saline (PBS), 0.5 % Triton-X, 5 mM MgCl2, 10 μg/mL lysozyme, cOmplete^TM EDTA-free protease inhibitor cocktail (Roche), 10 μg/mL DNAseI) and incubated for 1 h shaking at 4 °C. […] The supernatant was incubated with glutathione (GSH) Sepharose (Cytiva) or Ni2+ Sepharose (Cytiva) for 1 h at 4 °C while shaking. The beads with the bound protein were washed with 1x PBS and eluted with 10 mM reduced glutathione in 50 mM Tris pH 8.0. For fluorescence polarization experiments, the proteins were not eluted from the beads, and the 6xHis-GST tag was cleaved overnight on GSH Sepharose beads at 4 °C while shaking with PreScission Protease in cleavage buffer (50 mM Tris pH 7.5, 150 mM NaCl, 1 mM DTT). The sample containing the cleaved domain was separated from the tag and protease and buffer-exchanged to 50 mM sodium phosphate buffer pH 7.4 with 1 mM DTT using a PD-10 desalting column (Cytiva). The purity and size of the proteins were analyzed by SDS-PAGE electrophoresis.
The human disorderome library was used for four rounds of phage display selections. GST-tagged, 6xHis-tagged or GST-6xHis purified proteins were used as baits and GST was used as control by immobilization on a 96-well MaxiSorp plate (Nunc) overnight at 4 °C while shaking (10 μg of protein in 100 μL PBS). The wells containing the immobilized proteins were blocked with 0.5% BSA in PBS for 1 hour at 4 °C while shaking. The phage library was prepared by precipitation in 1/5th volume PEG/NaCl (20% PEG-8000 + 0.4 M NaCl), incubated for 10 min on ice, followed by centrifugation at 10,000 × g for 10 min at 4 °C and resuspended in PBS. The GST-coated wells were washed four times with 0.05% Tween 20 in PBS, and 100 μL/well phage library was added and incubated 1 h at 4 °C while shaking. The protein-coated wells were washed four times with 0.05% Tween 20 in PBS, and the phage solution from the GST-coated wells was transferred to the protein-coated wells and incubated 2 h at 4 °C while shaking. The unbound phages were removed by washing 5 times with 0.05% Tween 20 in PBS, and the bound phages were eluted with 100 μL/well log-phase E.coli OmniMAX by incubating for 30 min at 37 °C while shaking. M13KO7 helper phages (10^11 PFU/mL) were added to each well and incubated for 45 min at 37 °C while shaking. […]

[4] = target: T2, USP33 DUSP2 domain; experiment: FP-monitored affinity measurements, USP33 DUSP2; format: binding; details: competitive FP: unlabeled peptide (N-acetylated, C-amidated) against protein with 10 nM FITC-labeled peptide; 50 mM phosphate pH 7.4, room temperature; technical triplicate; read-out: KD, USP33 DUSP2
Protocol: as §1
The measurements were performed at room temperature in a non-binding black half area 96-well plate (Corning) with a total volume of 50 μL per well. Peptides were obtained from GeneCust (France) with >95% purity. FITC-labeled peptides (N-terminally FITC-labeled without spacer and C-terminally amidated) were dissolved in dimethyl sulfoxide (DMSO), and unlabeled peptides (N-terminally acetylated and C-terminally amidated) were dissolved in 50 mM phosphate buffer pH 7.4. Saturation measurements were performed using a serial dilution of the protein domains in phosphate buffer (25 μL) and the addition of 10 nM FITC-labeled peptide (in phosphate buffer supplemented with 2 mM DTT) (25 μL). […] All measurements were performed in three technical replicates. The data were analyzed using GraphPad Prism version 9.2.0 for MacOS (GraphPad Software, San Diego, California USA, www.graphpad.com). The saturation curves were fitted to the quadratic equation, and the displacement curves were fitted to a sigmoidal dose-response equation as described previously.

[5] = bait CYLD_CAP-Gly-1 (Q9NQC7 8-210), collapsed regions of overlapping peptides
[6] = bait CYLD_CAP-Gly-2 (Q9NQC7 235-307)
[7] = bait CYLD_CAP-Gly-2 (Q9NQC7 235-307), collapsed regions of overlapping peptides

T1 sequence (Q9Y2K6 with tags, fused parts or gaps): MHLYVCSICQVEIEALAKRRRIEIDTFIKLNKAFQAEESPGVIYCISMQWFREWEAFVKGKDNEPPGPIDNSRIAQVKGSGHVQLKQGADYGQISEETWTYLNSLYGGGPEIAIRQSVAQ

Average [1] | Normalize to higher intensity (%) [1] | Normalize to peptide with higher intensity % [1] | Normalize to higher intensity (%) [2] | Sequence | further results
138.987 | 77.83% | 77.8281% | 61.0297% | KMGSDEFDISPRISKQ [MGA] | 
44.4667 | 24.9% | 24.8999% | 27.858% | LRHPSGWWLVENEDRQ [NOXO1] | 
-8.778 | -4.916% | -4.916% | -0.2743% | MNFNVWNIKEMLSIPS [IHO1] | 
7.792 | 4.363% | 4.363% | 22.3834% | NGLDIAPRYFGFIKAC [SLC17A1] | 
51.5267 | 28.85% | 28.8533% | 42.7122% | RLQKDIWDIQMRSKSL [GBP2] | 
-28.3983 | -15.9% | -15.9022% | -36.2833% | VKHPRFFALFEKHGGY [PPIP5K1] | 

Second part, the sequence before the results:

Sequence | Average [1] | Normalize to higher intensity (%) [1] | Normalize to peptide with higher intensity % [1] | Normalize to higher intensity (%) [2] | further results
PDAELQRMEQEAERRR [RBM25_558-573] |  |  |  |  | specificity ([3]; bait CYLD_CAP-Gly-1 (Q9NQC7 8-210)): 0.95; max_confidence [3, 5]: 2; max_specificity [3, 5]: 0.95
PYIPMDDDFQARSFDQLS [L574A] |  |  |  |  | Kd [4]: > 200 µM
QPIDNSFDIQSRDCIS [MAP3K4] | 40.0217 | 22.41% | 22.4108% | 25.9612% | 
SQQDAQEFLRALMDLL |  |  |  |  | mean_counts_% [3, 6]: 30.84%; specificity [3, 6]: 0.87; max_specificity [3, 7]: 0.87
TWWDRYEEFVGLNEVR |  |  |  |  | mean_counts_% [3, 6]: 3.88%; specificity [3, 6]: 0.28; max_specificity [3, 7]: 0.28
VAEMVALVEQRA |  |  |  |  | max_specificity [3, 7]: 1.00
VAEMVALVEQRAALAL |  |  |  |  | mean_counts_% [3, 6]: 0.0147%; specificity [3, 6]: 0.48
WRFEQLEWRSILLDMA |  |  |  |  | max_specificity [3, 7]: 0.60

Source: publication PMC13376213, “Systematic discovery of motif-based interactions of the auxiliary domains of USP family deubiquitinases” (Nature Communications, 2026)
